Test results taken from patent US5077277A, “Chemical derivatives of antibiotics LL-E19020 alpha and beta” (American Cyanamid Company, priority 1989, dated 1991).

What was measured:
Assay type in all cases: cell-based
Conditions in all cases: 18 hours incubation
[1] = test system: Clostridium difficile ATCC 17858; assay: In vitro antibacterial activity, standard agar dilution (MIC)
[2] = test system: Streptococcus pneumoniae K 84-21; assay: as above
[3] = test system: Streptococcus b-hemolyticus C 203; assay: as above
[4] = test system: Streptococcus b-hemolyticus VGH 0.5; assay: as above
[5] = test system: Peptococcus magnus ATCC 14956; assay: as above
[6] = test system: Clostridium perfringens ATCC 13124
[7] = test system: Streptococcus b-hemolyticus VGH 84-62; assay: In vitro antibacterial activity, standard agar dilution (MIC)
[8] = test system: Bacteroides vulgaris ATCC 29327; assay: as above
[9] = test system: Peptococcus asaccharolyticus ATCC 29743; assay: as above
[10] = test system: Peptococcus magnus ATCC 29328; assay: as above
[11] = test system: Streptococcus b-hemolyticus VGH 84-60; assay: as above
[12] = test system: Streptococcus pneumoniae SV-1; assay: as above

Row | Compound | Minimal Inhibitory Concentration [1] | Minimal Inhibitory Concentration [2] | Minimal Inhibitory Concentration [3] | Minimal Inhibitory Concentration [4] | Minimal Inhibitory Concentration [5] | Minimal Inhibitory Concentration [6] | Minimal Inhibitory Concentration [7] | Minimal Inhibitory Concentration [8] | Minimal Inhibitory Concentration [9] | Minimal Inhibitory Concentration [10] | Minimal Inhibitory Concentration [11] | Minimal Inhibitory Concentration [12]
1 | C/C=C\C=C\C1OC(O)(C(CNC(=O)Cc2ccccc2)C(=O)NC/C=C/C=C(\C)C(OC)C(C)C2CC(O)C(/C=C/C=C/C=C/C(=O)O)O2)C(O)C(O)C1(C)C (stereo not drawn) [Compound I, Ammonolysis Product of LL-E19020 α and β] | 4 µg/mL | > 128 µg/mL | 8 µg/mL | 16 µg/mL | ≤ 0.06 µg/mL | > 128 µg/mL | 16 µg/mL | 128 µg/mL | 0.25 µg/mL | 0.25 µg/mL | 4 µg/mL | 64 µg/mL
2 | Aglycone Methyl Ester of LL-E19020β [Compound VI] |  | > 128 µg/mL | > 128 µg/mL | > 128 µg/mL | 0.5 µg/mL | > 128 µg/mL | > 128 µg/mL | > 128 µg/mL | 0.5 µg/mL | 0.5 µg/mL | > 128 µg/mL | > 128 µg/mL
3 | Methyl Ester of LL-E19020α [Compound II] | 2 µg/mL | 8 µg/mL | 0.12 µg/mL | 2 µg/mL | ≤ 0.06 µg/mL | 64 µg/mL | 2 µg/mL | 128 µg/mL | ≤ 0.06 µg/mL | ≤ 0.06 µg/mL | 0.5 µg/mL | 4 µg/mL
4 | Methyl Ester of LL-E19020β [Compound III] | 8 µg/mL | 32 µg/mL | 2 µg/mL | 8 µg/mL | ≤ 0.06 µg/mL | > 128 µg/mL | 8 µg/mL | 16 µg/mL | ≤ 0.06 µg/mL | ≤ 0.06 µg/mL | 2 µg/mL | 8 µg/mL
5 | Monosaccharide of Methyl Ester of LL-E19020α [Compound IV] | 8 µg/mL | 16 µg/mL | 4 µg/mL | 8 µg/mL | ≤ 0.06 µg/mL | > 128 µg/mL | 8 µg/mL | > 128 µg/mL | ≤ 0.06 µg/mL | ≤ 0.06 µg/mL | 2 µg/mL | 16 µg/mL
6 | Monosaccharide of Methyl Ester of LL-E19020β [Compound V] | 64 µg/mL | 64 µg/mL | 8 µg/mL | 32 µg/mL | ≤ 0.06 µg/mL | > 128 µg/mL | 32 µg/mL | > 128 µg/mL | ≤ 0.06 µg/mL | ≤ 0.06 µg/mL | 8 µg/mL | 32 µg/mL
